{"source": "paper PMC4323687", "about": "(Neurobiology of disease, 2014)", "key": {"[1]": {"experiment": "Pharmacokinetics and brain distribution after single administration", "type": "in vivo, C57/BL6 mice"}, "[2]": {"test_system": "mThy1-hAPP751 APPtg mouse model of AD", "experiment": "Immunoblot of Aβ42 species in brain membrane fraction of APPtg mice", "type": "in vivo", "settings": "vs vehicle-treated APPtg mice"}, "[3]": {"test_system": "mThy1-hAPP751 APPtg mouse model of AD", "experiment": "Aβ immunostaining of plaques in frontal cortex and hippocampus of APPtg mice", "type": "in vivo", "settings": "same treatments as E16"}, "monomeric Aβ42": {"molecular_target": "monomeric Aβ42 (Homo sapiens, UniProt P05067)", "sequence (P05067 672-713 limits assumed)": "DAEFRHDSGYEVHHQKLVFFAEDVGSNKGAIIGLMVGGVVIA", "experiment": "Fibrillization of monomeric Aβ42", "type": "biochemical"}, "[4]": {"molecular_target": "Aβ42 seeding-mediated fibril growth (Homo sapiens, UniProt P05067)", "sequence (P05067 672-713 limits assumed)": "as above", "experiment": "Aβ42 seeding polymerization assay", "type": "biochemical", "settings": "for fibril growth and number of amyloid fibrils by TEM: 3 hours incubation of seeds and monomers with compound; for inhibition at 10 µM: read-out: inhibition of seeded fibril growth (seeding capacity of short fibrils)"}, "[5]": {"test_system": "mThy1-hAPP751 APPtg mouse model of AD", "experiment": "Aβ42 ELISA in APPtg mouse brain", "type": "in vivo", "settings": "vs vehicle-treated APPtg mice"}, "Slack (Slo2.2) channels": {"test_system": "Slack (Slo2.2) channels", "settings": "ref Yang et al., 2006; cited from earlier work"}, "[6]": {"test_system": "mThy1-hAPP751 APPtg mouse model of AD", "experiment": "Electron microscopy of neuropil and amyloid in APPtg mouse brain", "type": "in vivo", "settings": "same treatments as E16"}, "[7]": {"test_system": "mThy1-hAPP751 APPtg mouse model of AD", "experiment": "Immunohistochemistry of synaptophysin, MAP2, NeuN and GFAP in APPtg mouse brain", "type": "in vivo", "settings": "for synapse loss (SYN-immunoreactivity) in the frontal cortex / synapse loss (SYN-immunoreactivity) in the hippocampus: vs APPtg mice treated with PBS"}, "protofibrillar Aβ42": {"molecular_target": "protofibrillar Aβ42 (Homo sapiens, UniProt P05067)", "sequence (P05067 672-713 limits assumed)": "as above", "experiment": "Conversion of Aβ42 protofibrils into mature fibrils", "type": "biochemical", "settings": "48 hours, ThT"}, "primary cortical neurons": {"test_system": "primary cortical neurons", "settings": "0.5, 5, 10, 20 and 50 μM, 24 hours, MTT"}, "Aβ": {"test_system": "Aβ", "settings": "ref Colombo et al., 2009; cited from earlier work"}}, "note": "pIC50: −log10 of the molar value.", "data": [{"smiles": "Oc1c(Cl)cc(Cl)cc1Sc1cc(Cl)cc(Cl)c1O", "note": "[bithionol]", "values": [{"measurement": "half-life", "setting": "[1]; C57/BL6, mouse, brain, iv, 10 mg/kg", "result": 1.77, "unit": "h"}, {"measurement": "half-life", "setting": "[1]; C57/BL6, mouse, plasma, iv, 10 mg/kg", "result": 7.62, "unit": "h"}, {"measurement": "levels of Aβ42 monomers and intermediate species (immunoblot, 82E1)", "setting": "[2]", "result": "significant reduction"}, {"measurement": "Aβ42-immunoreactivity in the hippocampus (% area of neuropil) vs vehicle APPtg", "setting": "[3]", "result": "significant decrease"}, {"measurement": "pIC50", "setting": "monomeric Aβ42", "result": 5.29}, {"measurement": "pIC50", "setting": "[4]", "result": 5.27}, {"measurement": "fibril growth and number of amyloid fibrils by TEM", "setting": "[4]", "result": "significant inhibition of fibril growth"}, {"measurement": "inhibition at 10 µM", "setting": "[4]", "result": "60 to 80", "unit": "%"}, {"measurement": "Aβ42 levels by ELISA, guanidine-HCl brain extractions", "setting": "[5]", "result": "significant and dramatic reduction"}, {"measurement": "Aβ42 levels by ELISA, membrane fractions", "setting": "[5]", "result": "significant and dramatic reduction"}, {"measurement": "activation of Slack channels", "setting": "Slack (Slo2.2) channels", "result": "robust activator of Slack channels"}, {"measurement": "amyloid fibrils in neuropil by electron microscopy", "setting": "[6]", "result": "only few fibrillar aggregates"}, {"measurement": "status of axons/neurites in neuropil by electron microscopy", "setting": "[6]", "result": "axons were comparable to controls"}, {"measurement": "synapse loss (SYN-immunoreactivity) in the frontal cortex", "setting": "[7]", "result": "significantly reversed"}, {"measurement": "synapse loss (SYN-immunoreactivity) in the hippocampus", "setting": "[7]", "result": "significantly reversed"}, {"measurement": "GFAP immunoreactivity (astroglial reactivity) in the frontal cortex", "setting": "[7]; vs vehicle-treated APPtg mice", "result": "strong and significant reduction"}, {"measurement": "MAP2 immunoreactivity (neuronal damage) in the frontal cortex", "setting": "[7]; vs vehicle-treated APPtg mice", "result": "reversion of the damage"}, {"measurement": "MAP2 immunoreactivity (neuronal damage) in the hippocampus", "setting": "[7]; vs vehicle-treated APPtg mice", "result": "reversion of the damage"}, {"measurement": "NeuN immunoreactivity in the frontal cortex", "setting": "[7]; vs vehicle-treated APPtg mice", "result": "increase"}]}, {"smiles": "Oc1c(Cl)cc(Cl)c(Cl)c1Cc1c(O)c(Cl)cc(Cl)c1Cl", "note": "[hexachlorophene]", "values": [{"measurement": "Kp", "setting": "[1]; C57/BL6, mouse, in vivo, iv, 10 mg/kg", "result": 0.5}, {"measurement": "brain penetration", "setting": "[1]; single IV administration 10 mg/kg", "result": 50, "unit": "%"}, {"measurement": "levels of Aβ42 monomers and intermediate species (immunoblot, 82E1)", "setting": "[2]", "result": "comparable to that observed in the vehicle-treated APPtg mice"}, {"measurement": "pIC50", "setting": "monomeric Aβ42", "result": 5.30}, {"measurement": "pIC50", "setting": "[4]", "result": 5.23}, {"measurement": "fibril growth and number of amyloid fibrils by TEM", "setting": "[4]", "result": "significant inhibition of fibril growth"}, {"measurement": "inhibition at 10 µM", "setting": "[4]", "result": "60 to 80", "unit": "%"}, {"measurement": "Aβ42 levels by ELISA, guanidine-HCl brain extractions", "setting": "[5]", "result": "did not significantly affect"}, {"measurement": "Aβ42 levels by ELISA, membrane fractions", "setting": "[5]", "result": "did not significantly affect"}]}, {"smiles": "O=C1c2c(O)ccc(O)c2C(=O)c2c(NCCNCCO)ccc(NCCNCCO)c21", "note": "[mitoxantrone]", "values": [{"measurement": "levels of Aβ42 monomers and intermediate species (immunoblot, 82E1)", "setting": "[2]", "result": "significant reduction"}, {"measurement": "inhibition of protofibril to fibril conversion", "setting": "protofibrillar Aβ42", "result": "> 80", "unit": "%"}, {"measurement": "pIC50", "setting": "monomeric Aβ42", "result": 5.60}, {"measurement": "effect of compound alone on cellular viability of neurons", "setting": "primary cortical neurons", "result": "significant reduction of the cellular viability only at high concentrations"}, {"measurement": "pIC50", "setting": "[4]", "result": 5.77}, {"measurement": "fibril growth and number of amyloid fibrils by TEM", "setting": "[4]", "result": "significant inhibition of fibril growth"}, {"measurement": "inhibition at 10 µM", "setting": "[4]", "result": "80 to 90", "unit": "%"}, {"measurement": "Aβ42 levels by ELISA, guanidine-HCl brain extractions", "setting": "[5]", "result": "significant and dramatic reduction"}, {"measurement": "Aβ42 levels by ELISA, membrane fractions", "setting": "[5]", "result": "significant and dramatic reduction"}, {"measurement": "amyloid fibrils in neuropil by electron microscopy", "setting": "[6]", "result": "only few fibrillar aggregates"}, {"measurement": "status of axons/neurites in neuropil by electron microscopy", "setting": "[6]", "result": "axons were comparable to controls"}, {"measurement": "synapse loss (SYN-immunoreactivity) in the frontal cortex", "setting": "[7]", "result": "significantly reversed"}, {"measurement": "synapse loss (SYN-immunoreactivity) in the hippocampus", "setting": "[7]", "result": "significantly reversed"}, {"measurement": "MAP2 immunoreactivity (neuronal damage) in the frontal cortex", "setting": "[7]; vs vehicle-treated APPtg mice", "result": "reversion of the damage"}, {"measurement": "MAP2 immunoreactivity (neuronal damage) in the hippocampus", "setting": "[7]; vs vehicle-treated APPtg mice", "result": "reversion of the damage"}, {"measurement": "NeuN immunoreactivity in the frontal cortex", "setting": "[7]; vs vehicle-treated APPtg mice", "result": "increase"}, {"measurement": "Aβ oligomerization and fibril formation", "setting": "Aβ", "result": "can block Aβ oligomerization and fibril formation"}]}]}
